Data published in the supplement of paper PMC10307832.

Tests used:
Experiment in all cases: relative viability (nuclei count vs DMSO), 5 days (fraction); higher = more cells survive
[1] = system: LC-2-ad
Summary of the method: (§1)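 Relative viability is defined as nuclei in treated wells over nuclei in vehicle wells. Duplicate plates were run and medians reported. Lung cancer cell lines in 1536-well plates were dosed by pin tool one day after seeding, with one drug or with a fixed anchor-drug dose plus five library-drug doses (not always all listed) in √10 steps, and nuclei were counted after 5 days.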

[2] = system: NCI-H2228
Summary of the method: as §1

[3] = system: NCI-H1734
Summary of the method: as §1

[4] = system: A-427
Summary of the method: as §1

[5] = system: RERF-LC-KJ
Summary of the method: as §1

[6] = system: HOP-62
Summary of the method: as §1

[7] = system: NCI-H1755
Summary of the method: as §1

[8] = system: NCI-H1915
Summary of the method: as §1

[9] = system: NCI-H2347
Summary of the method: as §1

[10] = system: HCC-15
Summary of the method: as §1

[11] = system: SW 1573
Summary of the method: as §1

[12] = system: SK-LU-1
Summary of the method: as §1

[13] = system: NCI-H2126
Summary of the method: as §1

[14] = system: NCI-H647
Summary of the method: as §1

[15] = system: PC-3 [JPC-3]
Summary of the method: as §1

[16] = system: HCC-78
Summary of the method: as §1

[17] = system: NCI-H1975
Summary of the method: as §1

[18] = system: NCI-H1792
Summary of the method: as §1

[19] = system: LXF-289
Summary of the method: as §1

O=c1cc(N2CCOCC2)oc2c(-c3cccc4c3sc3ccccc34)cccc12 + CC(C)C[C@H](NC(=O)[C@H](Cc1ccccc1)NC(=O)c1cnccn1)B(O)O [Bortezomib] (partner 0.002 µM)
relative viability ([1]; first compound 0.01 µM): 1.15 | relative viability ([1]; first compound 0.1 µM): 1.09 | relative viability ([1]; first compound 0.3162 µM): 0.993 | relative viability ([1]; first compound 1 µM): 1.05 | relative viability ([2]; first compound 0.03162 µM): 0.794 | relative viability ([2]; first compound 0.1 µM): 0.926 | relative viability ([2]; first compound 0.3162 µM): 1.33 | relative viability ([2]; first compound 1 µM): 1.14 | relative viability ([3]; first compound 0.01 µM): 0.92 | relative viability ([3]; first compound 0.03162 µM): 0.808 | relative viability ([3]; first compound 0.1 µM): 1.01 | relative viability ([3]; first compound 0.3162 µM): 0.938 | relative viability ([3]; first compound 1 µM): 0.899 | relative viability ([4]; first compound 0.01 µM): 0.991 | relative viability ([4]; first compound 0.03162 µM): 1.04 | relative viability ([4]; first compound 0.1 µM): 1.03 | relative viability ([4]; first compound 0.3162 µM): 0.871 | relative viability ([4]; first compound 1 µM): 1.03 | relative viability ([5]; first compound 0.01 µM): 1.1 | relative viability ([5]; first compound 0.03162 µM): 1.12 | relative viability ([5]; first compound 0.1 µM): 1.13 | relative viability ([5]; first compound 0.3162 µM): 1.22 | relative viability ([5]; first compound 1 µM): 1.09 | relative viability ([6]; first compound 0.01 µM): 0.497 | relative viability ([6]; first compound 0.03162 µM): 0.565 | relative viability ([6]; first compound 0.1 µM): 0.963 | relative viability ([6]; first compound 0.3162 µM): 0.81 | relative viability ([6]; first compound 1 µM): 0.723 | relative viability ([7]; first compound 0.01 µM): 1.02 | relative viability ([7]; first compound 0.03162 µM): 0.873 | relative viability ([7]; first compound 0.1 µM): 0.959 | relative viability ([7]; first compound 0.3162 µM): 1.03 | relative viability ([7]; first compound 1 µM): 0.977 | relative viability ([8]; first compound 0.01 µM): 0.994 | relative viability ([8]; first compound 0.03162 µM): 1.01 | relative viability ([8]; first compound 0.1 µM): 0.867 | relative viability ([8]; first compound 0.3162 µM): 0.94 | relative viability ([8]; first compound 1 µM): 0.995 | relative viability ([9]; first compound 0.01 µM): 1.15 | relative viability ([9]; first compound 0.03162 µM): 1.12 | relative viability ([9]; first compound 0.1 µM): 0.838 | relative viability ([9]; first compound 0.3162 µM): 0.835 | relative viability ([9]; first compound 1 µM): 0.839 | relative viability ([10]; first compound 0.01 µM): 0.948 | relative viability ([10]; first compound 0.03162 µM): 1.06 | relative viability ([10]; first compound 0.1 µM): 1.12 | relative viability ([10]; first compound 0.3162 µM): 0.948 | relative viability ([10]; first compound 1 µM): 1.04 | relative viability ([11]; first compound 0.01 µM): 1.32 | relative viability ([11]; first compound 0.03162 µM): 0.985 | relative viability ([11]; first compound 0.1 µM): 1.07 | relative viability ([11]; first compound 0.3162 µM): 1.12 | relative viability ([11]; first compound 1 µM): 0.952 | relative viability ([12]; first compound 0.01 µM): 1.15 | relative viability ([12]; first compound 0.03162 µM): 1.36 | relative viability ([12]; first compound 0.3162 µM): 1.5 | relative viability ([12]; first compound 1 µM): 1.17 | relative viability ([13]; first compound 0.01 µM): 1.14 | relative viability ([13]; first compound 0.03162 µM): 1.11 | relative viability ([13]; first compound 0.1 µM): 1.13 | relative viability ([13]; first compound 0.3162 µM): 1.06 | relative viability ([13]; first compound 1 µM): 1.14 | relative viability ([14]; first compound 0.01 µM): 1.01 | relative viability ([14]; first compound 0.03162 µM): 1.1 | relative viability ([14]; first compound 0.1 µM): 0.98 | relative viability ([14]; first compound 0.3162 µM): 1.02 | relative viability ([14]; first compound 1 µM): 0.924 | relative viability ([15]; first compound 0.01 µM): 0.824 | relative viability ([15]; first compound 0.03162 µM): 0.744 | relative viability ([15]; first compound 0.1 µM): 0.745 | relative viability ([15]; first compound 0.3162 µM): 0.749 | relative viability ([15]; first compound 1 µM): 0.862 | relative viability ([16]; first compound 0.01 µM): 0.544 | relative viability ([16]; first compound 0.03162 µM): 0.467 | relative viability ([16]; first compound 0.1 µM): 0.566 | relative viability ([16]; first compound 0.3162 µM): 0.482 | relative viability ([16]; first compound 1 µM): 0.468 | relative viability ([17]; first compound 0.01 µM): 0.384 | relative viability ([17]; first compound 0.03162 µM): 0.387 | relative viability ([17]; first compound 0.1 µM): 0.479 | relative viability ([17]; first compound 0.3162 µM): 0.349 | relative viability ([17]; first compound 1 µM): 0.372 | relative viability ([18]; first compound 0.01 µM): 0.965 | relative viability ([18]; first compound 0.03162 µM): 0.912 | relative viability ([18]; first compound 0.1 µM): 0.965 | relative viability ([18]; first compound 0.3162 µM): 0.938 | relative viability ([18]; first compound 1 µM): 0.955 | relative viability ([19]; first compound 0.01 µM): 1.01 | relative viability ([19]; first compound 0.03162 µM): 0.967 | relative viability ([19]; first compound 0.1 µM): 1.1 | relative viability ([19]; first compound 0.3162 µM): 1.03 | relative viability ([19]; first compound 1 µM): 1.05
